Values of other authors as cited in article PMC13291975, “Brighter NIR Bioluminescence System for Mammalian Cell Bioimaging Based on Engineered Railroadworm Luciferase and 6′-Aminoluciferin Analogues” (Chemical & Biomedical Imaging, 2026).

Molecular target: T1, Phrixotrix hirtus railroadworm red-emitting luciferase (PxRE; RE-WT) (Phrixothrix hirtus, UniProt Q9U4U7)
T1 construct: N-terminal His-tag, pCold vector, expressed in E. coli BL21-DE3, Ni-agarose purified
Test: bioluminescence peak intensity, Lineweaver-Burk
Type: biochemical
Details: read-out: K M LH2; ATP/MgSO4, 0.1 M Tris-HCl pH 8.0; kcat in relative luminometer counts; error not given, value possibly from the authors' earlier work; the text says 'Previously, we showed'
Description: bioluminescence peak intensity, Lineweaver-Burk on Phrixotrix hirtus railroadworm red-emitting luciferase (PxRE; RE-WT)

T1 sequence (Q9U4U7 entry or part of it): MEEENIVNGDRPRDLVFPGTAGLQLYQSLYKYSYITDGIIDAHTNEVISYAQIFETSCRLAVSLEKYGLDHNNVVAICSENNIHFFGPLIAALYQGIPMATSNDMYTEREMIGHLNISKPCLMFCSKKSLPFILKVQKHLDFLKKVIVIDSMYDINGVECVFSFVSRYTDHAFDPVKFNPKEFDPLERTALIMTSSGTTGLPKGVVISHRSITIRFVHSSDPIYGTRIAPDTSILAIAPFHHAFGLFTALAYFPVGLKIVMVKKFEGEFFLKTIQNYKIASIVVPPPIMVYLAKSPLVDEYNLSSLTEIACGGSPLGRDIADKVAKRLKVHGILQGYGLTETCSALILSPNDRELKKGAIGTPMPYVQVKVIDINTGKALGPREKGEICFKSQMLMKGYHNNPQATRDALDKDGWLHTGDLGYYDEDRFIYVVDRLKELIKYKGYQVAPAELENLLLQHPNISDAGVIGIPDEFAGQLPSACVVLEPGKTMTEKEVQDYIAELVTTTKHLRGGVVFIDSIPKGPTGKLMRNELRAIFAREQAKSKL

Km: 7 µM
SMILES: O=C(O)[C@H]1CSC(c2nc3ccc(O)cc3s2)=N1 [LH2, D-luciferin]
